From the supplement of paper PMC10307832

Legend:
Test in all cases: relative viability (nuclei count vs DMSO), 5 days (fraction); higher = more cells survive
Idelalisib = compound: CC[C@H](Nc1ncnc2[nH]cnc12)c1nc2cccc(F)c2c(=O)n1-c1ccccc1 [Idelalisib]
Procedure, shortened: (§1)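 Vehicle-anchored 1536-well plates of lung cancer cell lines, held overnight at 37 °C, were pinned with five library-drug doses (not always all listed) spaced by √10. No medium change followed over the next 5 days, after which the cells were fixed, permeabilised and Hoechst-stained together and imaged at 4×. Nuclei were counted with MetaXpress, and viability is treated-well nuclei over vehicle-well nuclei, taken as a median across plates. Plates passed with control CV below 25% and at least one doubling.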

Pemetrexed = compound: Nc1nc2[nH]cc(CCc3ccc(C(=O)N[C@@H](CCC(=O)O)C(=O)O)cc3)c2c(=O)[nH]1 [Pemetrexed]
Procedure, shortened: as §1

Idelalisib + Dasatinib = compound: CC[C@H](Nc1ncnc2[nH]cnc12)c1nc2cccc(F)c2c(=O)n1-c1ccccc1 [Idelalisib] + Cc1nc(Nc2ncc(C(=O)Nc3c(C)cccc3Cl)s2)cc(N2CCN(CCO)CC2)n1 [Dasatinib] (partner 0.075 µM)
Procedure, shortened: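 Nuclei were stained with Hoechst during a one-step fixation (final 0.05% Triton X-100, 1% formaldehyde, 1 ug/ml Hoechst) carried out 5 days after dosing, then counted on 4× images. The cells, lung cancer lines in 1536-well plates, had been dosed by pin tool the day after seeding with one drug alone or a fixed anchor-drug dose plus five library-drug doses (not always all listed) in √10 steps. Relative viability is the nuclei count in treated wells divided by that in vehicle wells, and each value is the median of duplicate plates.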

Cell Line | relative viability (Idelalisib; 0.04 µM) | relative viability (Idelalisib; 0.1265 µM) | relative viability (Idelalisib; 0.4 µM) | relative viability (Idelalisib; 1.265 µM) | relative viability (Idelalisib; 4 µM) | relative viability (Pemetrexed; 0.002 µM) | relative viability (Pemetrexed; 0.006325 µM) | relative viability (Pemetrexed; 0.02 µM) | relative viability (Pemetrexed; 0.06325 µM) | relative viability (Pemetrexed; 0.2 µM) | relative viability (Pemetrexed; 0.2 µM, anchor plate) | relative viability (Idelalisib + Dasatinib; first compound 0.04 µM) | relative viability (Idelalisib + Dasatinib; first compound 0.1265 µM) | relative viability (Idelalisib + Dasatinib; first compound 0.4 µM) | relative viability (Idelalisib + Dasatinib; first compound 1.265 µM) | relative viability (Idelalisib + Dasatinib; first compound 4 µM)
NCI-H661 | 1.07 | 0.976 | 0.98 | 1.01 | 0.994 | 1 | 0.975 | 1.02 | 0.977 | 0.967 | 0.923 | 1.1 | 0.969 | 0.673 | 1.08 | 0.673
CAL-12T | 1.1 | 1.08 | 1.01 | 1.11 | 1.08 | 0.936 | 0.938 | 1.16 | 0.967 | 0.863 | 1.19 | 0.315 | 0.478 | 0.273 | 0.375 | 0.305
HARA | 1.02 | 1.05 | 0.783 | 1.23 | 0.794 | 0.944 | 1.05 | 1.12 | 0.904 | 0.225 | 0.241 | 0.279 | 0.235 | 0.174 | 0.228 | 0.238
NCI-H596 | 1.05 | 1.01 | 0.976 | 1.04 | 0.809 | 0.996 | 0.909 | 0.942 | 0.732 | 0.436 | 0.499 | 0.586 | 0.631 | 0.493 | 0.575 | 0.549
LU99A | 1.08 | 1.08 | 0.814 | 1.14 | 1.05 | 0.869 | 0.92 | 1.07 | 1.08 | – | – | 0.528 | 0.617 | 0.428 | 0.61 | 0.646
LC-2-ad | 1.05 | 1 | 0.962 | 1.12 | 0.93 | 0.815 | 0.974 | 0.967 | 0.296 | 0.3 | 0.285 | 0.583 | 0.48 | 0.424 | 0.626 | 0.519
NCI-H1650 | 0.984 | 0.907 | 0.882 | 0.91 | 0.815 | 0.788 | 0.89 | 1.21 | 0.633 | 0.341 | 0.367 | 0.322 | 0.321 | 0.24 | 0.315 | 0.23
NCI-H1915 | 1.08 | 0.999 | 0.948 | 1.11 | 0.984 | 0.95 | 0.976 | 1.12 | 0.982 | 0.98 | 0.507 | 0.425 | 0.316 | 0.284 | 0.357 | 0.3
ABC-1 | 0.917 | 0.938 | 0.955 | 0.895 | 0.961 | 0.911 | 1.02 | 1.22 | 0.976 | 0.822 | – | 0.537 | 0.599 | 0.582 | 0.681 | 0.573
HCC-44 | 1.04 | 0.953 | 0.98 | 1.08 | 1.13 | 0.839 | 0.989 | 1.06 | 0.995 | 0.796 | 0.647 | – | – | – | – | –
HCC-78 | 1.05 | 0.923 | 0.811 | 1.01 | 0.729 | 0.674 | 0.98 | 0.877 | 0.43 | – | – | 0.407 | 0.378 | 0.311 | 0.361 | 0.41
LXF-289 | 1.05 | 1.07 | 1 | 1.07 | 1.04 | 0.938 | 0.999 | 1.04 | 1.02 | 0.939 | 0.905 | 0.19 | 0.218 | 0.135 | 0.202 | 0.195
201T | 0.985 | 1.01 | 0.885 | 1.06 | 0.867 | 1.01 | 0.998 | 1.04 | 0.996 | 0.91 | 0.323 | 0.609 | 0.614 | 0.476 | 0.623 | 0.605
NCI-H1734 | 1.15 | 1.04 | 0.833 | 0.959 | 0.938 | 0.997 | 0.923 | 1.11 | 0.964 | 0.676 | 0.433 | 0.468 | 0.487 | 0.338 | 0.454 | 0.374
NCI-H1623 | 1 | 0.961 | 0.846 | 0.949 | 0.817 | 0.899 | 1.04 | 0.976 | 0.912 | 0.955 | – | 0.505 | 0.559 | 0.52 | 0.517 | 0.602
NCI-H2126 | 1.02 | 1.08 | 0.837 | 1.03 | 0.931 | 0.974 | 0.992 | 1.04 | 1 | 0.91 | 0.684 | 0.548 | 0.664 | 0.522 | 0.62 | 0.557
LOU-NH91 | 1.07 | 0.882 | 0.878 | 0.762 | 0.932 | 0.948 | 1 | 1.06 | 0.678 | 0.521 | 0.388 | 0.599 | 0.561 | 0.482 | 0.42 | 0.542
NCI-H1792 | 1.08 | 0.942 | 0.653 | 1.09 | 0.85 | 1.09 | 0.897 | 1 | 0.893 | 0.94 | 0.968 | 0.469 | 0.92 | 0.68 | 0.794 | 0.569
NCI-H1651 | 1.01 | 1.01 | 0.885 | 0.965 | 0.938 | 0.951 | 0.91 | 1.04 | 0.95 | 0.945 | 0.616 | 0.305 | 0.314 | 0.318 | 0.518 | 0.332
A549 | 1.01 | 0.956 | 0.747 | 1.04 | 0.825 | 0.938 | 0.948 | 1.09 | 0.973 | 1.01 | – | – | – | – | – | –
HCC-366 | 1.06 | 0.993 | 0.986 | 0.987 | 0.966 | 0.964 | 0.985 | 1.07 | 0.991 | – | – | 0.679 | 0.705 | 0.433 | 0.62 | 0.601
